The text below walks through data of US11560366B2, “Bicyclo[1.1.1]pentane inhibitors of dual leucine zipper (DLK) kinase for the treatment of disease” (Board of Regents, The University of Texas System, priority 2019, dated 2023).

Read-outs that look alike come from different tables or passages of the source.

Data set [1] in a line: Metabolic stability in liver microsomes, rat. Format: in vitro ADME. The conditions noted are these: Sprague Dawley, 0.5 mg/mL microsomes, NADPH, 45 minutes, 37° C., read-out: Half-life in liver microsomes (t1/2, minutes). The protocol: (§1) The test compound was incubated with liver microsomes (0.5 mg/mL) from CD-1 mouse, Sprague Dawley rat, Beagle dog, Cynomolgus monkey, and human in the presence of NADPH for 45 minutes at 37° C. The % parent remaining over time was determined by LC-MS/MS, using peak area ratios. Half-life (t1/2) was calculated using the following equation: t1/2=ln2/k, where k is the rate constant of parent decay over time (slope of the plot of log[% parent remaining] versus time).
Background: Liver microsomes are a subcellular fraction often used to study metabolism.

Data set [2] can be described thus: Metabolic stability in liver microsome preparations, overall comparison. Format: in vitro ADME. To be noted: relative to comparator compounds 13 or 14/14b (WO2018207072). The protocol:
as §1

Data set [3] can be described thus: Metabolic stability in liver microsomes, dog. Format: in vitro ADME. The conditions noted are these: Beagle, 0.5 mg/mL microsomes, NADPH, 45 minutes, 37° C., read-out: Half-life in liver microsomes (t1/2, minutes). Here is the method: as §1
Data set [4] can be described thus: Rat pharmacokinetics, single dose. Format: in vivo, Wistar Han rats. The conditions noted are these: for clearance / half-life / Vd / AUC(0-t) / Cmax / bioavailability: rat, in vivo, Wistar Han rats; for clearance / half-life / Vd: IV dose 1 mg/kg; for Vd: read-out: Vss; for AUC(0-t) / Cmax / bioavailability: oral dose 3 mg/kg. The protocol:
Pharmacokinetics for compounds 13, 1a, and 9b were determined using single dosage of Wistar Han rats using techniques that are well known in the art.

Data set [5] is described as follows: Metabolic stability in liver microsomes, monkey. The conditions noted are these: 0.5 mg/mL microsomes, NADPH, 45 minutes, 37° C., read-out: Half-life in liver microsomes (t1/2, minutes). Format: in vitro ADME, Cynomolgus monkey. Here is the method:
as §1

Data set [6] is described as follows: Mouse pharmacokinetics, single dose. The conditions noted are these: for Kp / unbound brain-to-plasma ratio (Kp,uu): male, C57BL/6, mouse, brain and plasma, po, 10 mg/kg, based on AUC; for Kp / unbound brain-to-plasma ratio (Kp,uu) / clearance / half-life / Vd / AUC(0-t) / Cmax / bioavailability: male C57BL/6 mice; for Kp / unbound brain-to-plasma ratio (Kp,uu) / AUC(0-t) / Cmax / bioavailability: oral dose 10 mg/kg; for Kp: read-out: Brain/Plasma Ratio; for unbound brain-to-plasma ratio (Kp,uu): read-out: Free Brain/Plasma Ratio; for clearance / half-life / Vd / AUC(0-t) / Cmax / bioavailability: mouse; for clearance / half-life / Vd: in vivo, IV dose 0.3 mg/kg (1a, 4b, 13, 14b, 16; IV dose of 8a, 9b not stated); for Vd: read-out: Vss; for AUC(0-t) / Cmax / bioavailability: plasma; for clearance in mice, comparison in words / half-life in mice, comparison in words: relative to comparator compounds 13 or 14b. Format: in vivo, male C57BL/6 mice.

Data set [7] addresses human DLK (Homo sapiens (Human), UniProt Q12852). In words: DLK Kd determination (KINOMEscan KdELECT, DiscoveRx). Format: binding. The conditions noted are these: read-out: Kd.
Experimental: The DLK dissociation constants (Kd) have been determined in the KINOMEscan KdELECT Service at DiscoveRx.
A fusion protein of full length of human DLK (amino acids 1-859) and the DNA binding domain of NFkB was expressed in transiently transfected HEK293 cells. From these HEK 293 cells, extracts were prepared in M-PER extraction buffer (Pierce) in the presence of Protease Inhibitor Cocktail Complete (Roche) and Phosphatase Inhibitor Cocktail Set II (Merck) per manufacturers' instructions. The DLK fusion protein was labeled with a chimeric double-stranded DNA tag containing the NFkB binding site (5′-[sequence]-3′, SEQ ID NO:1) fused to an amplicon for qPCR readout, which was added directly to the expression extract (the final concentration of DNA-tag in the binding reaction is 0.1 nM).
The liganded beads were blocked with excess biotin and washed with blocking buffer (SeaBlock (Pierce), 1% BSA, 0.05% Tween 20, 1 mM DTT) to remove unbound ligand and to reduce nonspecific binding.
Extracts were used directly in binding assays without any enzyme purification steps at a >10,000-fold overall stock dilution (final DNA-tagged enzyme concentration <0.1 nM). Extracts were loaded with DNA-tag and diluted into the binding reaction in a two step process. First extracts were diluted 1:100 in 1× binding buffer (PBS/0.05% Tween 20/10 mM DTT/0.1% BSA/2 μg/ml sonicated salmon sperm DNA) containing 10 nM DNA-tag. This dilution was allowed to equilibrate at room temperature for 15 minutes and then subsequently diluted 1:100 in 1× binding buffer. Test compounds were prepared as 111× stocks in 100% DMSO. Kds were determined using an 11-point 3-fold compound dilution series with three DMSO control points. […] The compounds were then diluted directly into the assays such that the final concentration of DMSO was 0.9%. All reactions performed in polypropylene 384-well plates. Each was a final volume of 0.02 mL. Assays were incubated with shaking for 1 hour at room temperature. Then the beads were pelleted and washed with wash buffer (1×PBS, 0.05% Tween 20) to remove displaced kinase and test compound. […] The kinase concentration in the eluates was measured by qPCR. qPCR reactions were assembled by adding 2.5 μL of kinase eluate to 7.5 μL of qPCR master mix containing 0.15 μM amplicon primers and 0.15 μM amplicon probe.
Test compounds were prepared as 111× stocks in 100% DMSO. Kds were determined using an 11-point 3-fold compound dilution series with three DMSO control points. […] The compounds were then diluted directly into the assays such that the final concentration of DMSO was 0.9%. The Kds were determined using a compound top concentration of 30,000 nM. Kd measurements were performed in duplicate.
Binding constants (Kds) were calculated with a standard dose-response curve using the Hill equation:
The Hill Slope was set to −1.
The nature of data set [8]: Metabolic stability in liver microsomes, human. Format: in vitro ADME. To be noted: 0.5 mg/mL microsomes, NADPH, 45 minutes, 37° C., read-out: Half-life in liver microsomes (t1/2, minutes). Here is the method: as §1
Data set [9] in a line: Metabolic stability in liver microsomes, mouse. The format is in vitro ADME, CD-1 mouse. The conditions noted are these: CD-1, liver microsomes, 0.5 mg/mL microsomes, NADPH, 45 minutes, 37° C., read-out: Half-life in liver microsomes (t1/2, minutes). Here is the method: as §1
Where [10] appears, read: relative to comparator compound 13.

Chain of human DLK (Q12852 whole entry): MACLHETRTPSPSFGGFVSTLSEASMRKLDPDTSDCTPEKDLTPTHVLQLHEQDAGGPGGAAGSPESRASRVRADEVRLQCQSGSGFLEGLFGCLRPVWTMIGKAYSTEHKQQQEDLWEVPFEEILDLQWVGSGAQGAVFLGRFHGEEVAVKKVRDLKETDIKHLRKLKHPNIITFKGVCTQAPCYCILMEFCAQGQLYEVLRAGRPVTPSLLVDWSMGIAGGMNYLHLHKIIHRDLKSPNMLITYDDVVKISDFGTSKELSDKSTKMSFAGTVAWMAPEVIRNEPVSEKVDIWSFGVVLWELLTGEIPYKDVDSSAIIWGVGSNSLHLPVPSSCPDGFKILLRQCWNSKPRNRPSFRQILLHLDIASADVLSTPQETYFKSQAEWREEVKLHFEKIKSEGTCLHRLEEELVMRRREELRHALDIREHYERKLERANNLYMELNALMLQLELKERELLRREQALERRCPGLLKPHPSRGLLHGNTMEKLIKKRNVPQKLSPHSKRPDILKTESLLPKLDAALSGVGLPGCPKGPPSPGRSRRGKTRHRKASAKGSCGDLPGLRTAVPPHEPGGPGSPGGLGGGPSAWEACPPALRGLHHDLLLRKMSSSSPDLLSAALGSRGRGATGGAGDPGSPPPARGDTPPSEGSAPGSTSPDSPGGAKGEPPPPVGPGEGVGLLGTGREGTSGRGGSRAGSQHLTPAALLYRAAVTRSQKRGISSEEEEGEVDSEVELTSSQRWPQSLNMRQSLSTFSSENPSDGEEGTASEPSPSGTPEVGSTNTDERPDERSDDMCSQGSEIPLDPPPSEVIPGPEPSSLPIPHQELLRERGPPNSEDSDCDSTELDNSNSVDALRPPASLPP

Regarding `Nc1ncc(-c2cn(C34CC(F)(C3)C4)c([C@@H](O)C(F)(F)F)n2)cc1OC(F)(F)F` (single isomer, unassigned) [Example 1a], the half-life in [1] worked out at 154 min. The “microsomal stability, comparison in words” value in data set [2] was “improvements to microsomal stability”. Further, the half-life in [3] was found to be 287 min. In data set [4], the clearance (usually a measure of how efficiently the substance is removed, as volume per time) is 5.9 mL/min/kg; the half-life is 11.5 h; the Vd worked out at 4.9 L/kg; the AUC(0-t) – broadly, the area under the concentration-time curve up to a stated or last time point – turned out to be 16.8 µM·h. For the same compound, in data set [4], the Cmax – broadly, the maximum level reached in the sampled fluid or tissue – turned out to be 1310 nM and the bioavailability was 103%. In data set [4] (setting [10]), the “clearance in rats, comparison in words” value is listed as “reduced clearance” and the “half-life in rats, comparison in words” value was “longer half-life”. Also, the half-life in data set [5] worked out at 182 min. Moreover, in [6], the Kp came out at 1.77, the unbound brain-to-plasma ratio (Kp,uu) was found to be 0.92, the clearance was 4.3 mL/min/kg and the half-life is 12.7 h. In data set [6], the Vd was found to be 4.5 L/kg, the exposure AUC(0-t) was found to be 111 µM·h, the Cmax was 6360 nM and the bioavailability is 154%. In addition, in [6], the “clearance in mice, comparison in words” value is “reduced clearance” and the “half-life in mice, comparison in words” value was “longer half-life”. Moreover, the Kd (commonly the free concentration of one partner at which half of the binding sites on the other are occupied at equilibrium, for simple one-to-one binding) in [7] came to 2.2 nM. Moreover, the half-life in data set [8] is 558 min. In addition, the half-life in data set [9] stood at 378 min.

On to `CC(C)[C@H](O)c1nc(-c2cnc(N)c(C(F)(F)F)c2)cn1C12CC(F)(C1)C2` (single isomer, unassigned) [Example 4b], for which the half-life in data set [1] was 30 min. The “microsomal stability, comparison in words” value in data set [2] was “improvements to microsomal stability”. The half-life in data set [3] is 355 min. For the same compound, the half-life in data set [5] came out at 22 min. Also, in [6], the Kp is 1.72, the unbound brain-to-plasma ratio (Kp,uu) stood at 1.06, the clearance amounted to 24.5 mL/min/kg and the half-life is 1.86 h. In data set [6], the Vd was 3.3 L/kg, the AUC(0-t) was determined as 8.67 µM·h, the peak level (Cmax) was 5420 nM and the bioavailability amounted to 49.2%. In addition, in data set [6], the “clearance in mice, comparison in words” value was “reduced clearance” and the “half-life in mice, comparison in words” value was “longer half-life”. Further, in [7], the Kd stood at 0.29 nM. Further, the half-life in [8] turned out to be 213 min. The half-life in data set [9] turned out to be 71 min.

Turning to `Nc1ncc(-c2cn(C34CC(C3)C4)c([C@@H](O)C(F)(F)F)n2)cc1OC(F)(F)F` [Compound 13, (R)-1-(4-(6-amino-5-(trifluoromethoxy)-pyridin-3-yl)-1-(bicyclo[1.1.1]pentan-1-yl)-1H-imidazol-2-yl)-2,2,2-trifluoroethan-1-ol, reference compound], in [1], the half-life came out at 77 min. Also, the half-life in data set [3] turned out to be 109 min. Besides, in data set [4], the clearance came to 12.1 mL/min/kg, the half-life is 9.94 h, the Vd is 7.9 L/kg and the area under the curve AUC(0-t) was determined as 7.59 µM·h. Also, in data set [4], the Cmax stood at 909 nM and the bioavailability was found to be 86.3%. Further, the half-life in [5] came to 56 min. Also, in data set [6], the Kp worked out at 2.97, the unbound brain-to-plasma ratio (Kp,uu) amounted to 1.54, the clearance is 14.1 mL/min/kg and the half-life was 3.53 h. For the same compound, in [6], the Vd worked out at 4.6 L/kg, the AUC(0-t) stood at 14.4 µM·h, the highest level (Cmax) was 1950 nM and the bioavailability came to 51%. For the same compound, the Kd in data set [7] (full length human DLK fusion protein, qPCR readout, duplicate) was determined as 1.6 nM. Moreover, the half-life in data set [8] worked out at 121 min. In addition, in [9], the half-life was found to be 221 min.
